In US5972883A, “Method for the treatment of neurodegenerative diseases by administering VIP, an analogue, fragment or a conjugate thereof” (Yeda Research and Development Co. Ltd., priority 1993, dated 1999):
Where “and” joins values, the source holds several entries; their conditions need not be identical. Identical values can stand only once. Entries after “also recorded” stand apart in the source; their conditions may differ.

Legend:
[1] = test system: electrically blocked neurons (mouse spinal cord neurons); format: cell-based
VIP receptor = test: Affinity studies: displacement of radiolabeled VIP on cerebral cortical astrocytes; format: binding
Protocol: (a) Cerebral cortical astrocytes were obtained and cultured as described before^16,17). Binding studies were performed on intact cells, 5-7 days after replating at 4° C. in phosphate buffered saline containing 0.1% bovine serum albumin. Cells were divided into two groups. Group 1 was incubated with varying concentrations of St-VIP and Group 2 was incubated with varying concentrations of St-Nle^17 -VIP. After 30 min. incubation with the VIP analogue, 50 pM of ^125 -VIP^(14) was added and incubated for an hour. The media was then removed and cells were washed three times by rapid addition and removal of 1 ml phosphate buffered saline at 4° C. The labeled cells were then dissolved in 0.2 N NaOH and transferred for radioactivity counting by an automatic gamma counter (Wallac 1470 Wizard).

[2] = test system: learning and memory in AF64A-injected rats; test: Morris water maze, AF64A animal model of Alzheimer, I.C.V. drug administration; format: in vivo, rat; details: 100 ng I.C.V. daily
Protocol: 13 Male rats were injected intracerebroventricularly (I.C.V.) at a rate of 0.21 μl/min, using plastic tubing (PE-20) attached to 25G needle. 5 rats serving as control received an injection of saline (2 μl/side), 8 other animals received injections of ethylcholine aziridium (AF64A) (3 nmol/2 μl/side). AF64A is an inducer of cholinergic hypofunctions which mimics some of the cholinergic hypofunction reported in Alzheimer's disease and is used for preparing animal models of Alzheimer^(22).
Animals were cannulated following injection to allow I.C.V. drug application and left to recover for a week. Learning and memory tests were conducted using the swim maze test. The 8 animals injected with AF64A were divided into two equal groups and were thereafter injected daily with either saline or 100 ng I.C.V. of St-Nle^17 -VIP. The five control rats (see above) were injected with saline. Following seven injection days, behavioral assays were conducted for an additional 14 days on both control and test animals. […]
(§1) Rats were placed in a circular pool, 1.26 m in diameter, 0.2 m deep, equipped with a clear plexiglas column, with a 13.3 cm platform reaching just below the surface of the water (22-24° C.). […] The latency of reaching the platform was recorded for each rat (in seconds) and the changes over days of training were graphed, which reflect learning and memory.

[3] = test system: learning and memory in AF64A-treated rats; test: Morris water maze, AF64A animal model of Alzheimer, nasal drug administration; format: in vivo, rat; details: daily nasal administration (St-Nle17-VIP 70 μg/40 μl; peptide 6 50 μg/40 μl)
Protocol: 8 Male rats were all treated with AF64A as described above. 10 days after AF64A administration 5 animals received daily nasal administration of St-Nle^17 -VIP dissolved in 10% sefsol and 40% isopropanol at a concentration of 70 μg/40 μl (20 μl administered through each nostril). 3 Animals received daily nasal administration of 50 μg/40 μI of peptide 6, (20 μl/nostril) dissolved in 10% sefsol and 40% isopropanol. 6 Control animals received daily nasal administration of 10% sefsol and 40% isopropanol at an amount of 40 μl/day (20 μl nostril). The animals were partially anesthetized by diethylether prior to nasal administration. Both control and test animals were daily treated with 50,000 units of durabiotic antibiotics to avoid infection. Following 7 days of nasal administration behavioral tests were conducted on both control and test animals for an additional 8 days. […]
as §1

[4] = test system: learning and memory in old rats; test: Learning and memory in old animals (water pool), nasal administration; format: in vivo, rat; details: rats aged 18-20 months, nasal 100 μg/40 μl/day
Protocol: 6 Male rats aged 18-20 months were divided into hvo groups. Group 1 received daily nasal administrations of St-Nle^17 -VIP dissolved in 10% sefsol at 40% isopropanol at a dose of 100 μg/40 μl/day (20 μl/nostril). Control animals were treated with daily nasal administration of 40 μl/day of 10% sefsol and 40% isopropanol (20 μl/nostril). The administration was carried out after partial anesthetization by diethylether. Animals were thus treated for 7-19 days and then were tested by placing them in a water pool as described above.

[5] = Biodistribution following intranasal administration of radioiodinated peptide; format: in vivo, rat; details: rats
Protocol: St-Nle^17 -VIP was labeled with radioactive iodine and 3×10^6cpn/2 μl/rat of the labeled substance were applied intranasally to 250-300 g rats. Animals were sacrificed 15 mins. following drug administration.
Radioactive tissue samples were then homogenized and subjected to centrifugation (5,400×g for 25 mins.). Supernatants were then subjected to HPLC analysis against St-Nle^17 -VIP as a marker. Elution was carried out using acetonitrile gradient at fraction 30. Samples were then weighed and monitored for radioactivity in a gamma counter. To assess for the integrity of the incorporated St-Nle^17 -VIP radioactive tissue, supernatants were subjected to HPLC analysis. Radioactive tissue samples were hornogenized, subjected to centrifugation and supernatnants analyzed by HPLC fractionation against St-Nle-VIP as a marker (eluting using an acetonitrile gradient at fraction 30).

Sprague Dawley rats [6] = test: Single dose toxicity, orally administered; format: in vivo, rat
Source text: The single dose toxicity of St-Nle^17 -VIP administered orally was investigated in 4 groups of six male and six female rats (Sprague Dawley (S.D.) strain, purchased from Levinstein, Yokneam, Israel.)

Sprague Dawley rats [7] = test: Single dose toxicity, intravenously injected (tail vein); format: in vivo, rat
Source text: The single dose toxicity of St-Nle^17 -VIP injected intravenously, in to the tail vein, was investigated in 4 groups of six male and six female rats (Sprague Dawley (S.D.) strain, purchased from Levinstein, Yokneam, Israel).

[8] = Stability of test material; format: physicochemical
[9] = Pharmacological experimentation: biologically active dose; format: in vivo; details: rat
Protocol: The logic of the dose design was as follows: pharmacological experimentation has shown that the biologically active dose is 7 μg per rat. The dose of 1000× the biologically active dose was chosen for this experiment.

Sprague Dawley rats [10] = test: Repeated dose toxicity, topically applied, 13 weeks
[11] = test system: Neurons from rat cerebral cortex treated with β-amyloid peptide fragment 25-35; test: Survival of neurons treated with fragment 25-35 of β-amyloid peptide
[12] = displacement of radiolabeled VIP, intact astrocytes, 4° C.
[13] = i.v., 7 μg/rat + vehicle (group 3)
[14] = i.v., 7,000 μg/rat + vehicle (group 4)

## Stearoyl-noricucine^17 -VIP [St-Nle^17 -VIP]
[1]
  potency relative to native VIP in protecting electrically blocked cells from death: about 100 fold
[1]; 1 μM tetrodotoxin
  peak of active concentrations: broadening of the peak of active concentrations
VIP receptor; VIP value from reference 19
  affinity to the high affinity receptor relative to VIP: about 100 fold
VIP receptor; [12]
  affinity relative to St-VIP, high concentration zone (low affinity zone): 10 fold
  affinity relative to St-VIP, low concentration (high affinity) zone: 10 fold
[2]
  learning and memory (latency of reaching the platform): showed recovery of the learning and memory abilities, essentially similar to that of control animals
[3]
  learning and memory (latency of reaching the platform): control animals (.quadrature.) show smaller improvement in the latency of reaching the platform
[4]
  learning and memory (latency of reaching the platform): showed a greater improvement in the latency of reaching the platform over time as compared to control untreated animals
[5]; 15 mins. after intranasal administration
  distribution to brain after nasal administration: able to reach the brain
[5]; intranasal
  integrity of peptide in tissue (HPLC of radioactive supernatants): reaches its target organs in an active, intact form
Sprague Dawley rats [6]; oral single dose
  body weight gain and food consumption: normal body weight gain
  side effects: No necrotic reactions, or any other side effects were observed
Sprague Dawley rats [6]; oral single dose, up to 7000 μg/rat
  mortality: No mortality occurred
Sprague Dawley rats [6]; oral, rat
  acute oral LD50: greater than 7000 μg/rat
Sprague Dawley rats [7]; [13]
  animals with necrotic reaction at the site of injection (tail skin): 58%
  mortality: No mortality occurred in groups 1 and 3
Sprague Dawley rats [7]; [14]
  animals with necrotic reaction at the site of injection (tail skin): all the animals
  mortality: Seven rats (3 male and 4 female out of 12) died
  time of death after administration: ≤ 3 h
Sprague Dawley rats [7]; i.v., all groups
  other side effects in surviving rats: No other side effects were observed
Sprague Dawley rats [7]; i.v., two weeks study period
  body weight gain versus vehicle control: increased weight gain
Sprague Dawley rats [7]; i.v., with vehicle, combined males and females
  acute intravenous LD50, combined males and females: less than 7,000 μg
Sprague Dawley rats [7]; i.v., with vehicle, male rats
  acute intravenous LD50, males: 7,000 μg/male rat
[8]
  stability, powder: for a year
[9]
  biologically active dose: 7 μg per rat
Sprague Dawley rats [10]; topical daily
  body weight gain or food consumption: No significant differences were detected
  clinical pathology (hematology, clinical chemistry): No dose related or sex related biologically meaningful treatment effects were detected
  organ weight analysis: No treatment related differences were noted
Sprague Dawley rats [10]; topical daily for 13 weeks, 7, 700, 3500 μg
  adverse effects: No dose related adverse effects were detected; also recorded: did not cause any serious adverse effects at any of the dosages tested
Sprague Dawley rats [10]; topical daily, 7, 700, 3500 μg
  mortality: No mortality associated with drug application was noted
[11]; 25 μM β-amyloid fragment 25-35
  most effective protective concentration (peak activity) against β-amyloid associated death: 10^-13 M
[11]; 25 μM β-amyloid fragment 25-35, 5 days
  protection of neurons from β-amyloid peptide fragment toxicity: able to protect neurons from the toxic effect of β-amyloid peptide fragment at all concentrations tested
[11]; FIG. 7 experiment
  concentrations protecting also against naturally occurring cell death: 10^-10 M and 10^-9 M
